Reference: patent US20240180881A1, “METHODS FOR DECREASING RESISTANCE TO CHEMOTHERAPY” (National Institute of Immunology, priority 2022, published 2024)
Where two headings read alike, the source gives them in different places.

Assays:
[1] = system: HCT116 IC60 1-OHPR cells; conditions: read-out: EC50 (μM), HCT116 1-OHP^R + 1-OHP; 1-OHP gradient alone, MTT, 72 hours
Procedure: (§1) The three resistant lines and their wildtype counterpart HCT116 were exposed to a gradient of CPT, CDDP or 1-OHP.
(§2) Concentrations of CPT used: 0.140 nM, 20 nM, 50 nM, 1000 nM. Concentration of 1-OHP: 0.14 μM, 2 μM, 4 μM, 6 μM, 8 μM. Concentrations of CDDP used: 0.140 μM, 2 μM, 5 μM, 10 μM. The percentage of viable cells were determined by MTT assays (FIG. 12A-12C). The data in FIG. 12A and FIG. 12C is from three independent experiments and the data in FIG. 12B is from nine independent experiments. […] The levels of MRP2, MRP3, MRP5, MXR were quantitated from three independent experiments. […] Specifically, HCT116 IC60 CPTR cells were transfected with the HR substrate for 72 hours and the levels of HR was determined (FIG. 6A). The data is from three independent experiments. […] The number of soft agar colonies in each condition were counted. The data is from three independent experiments.
(§3) To generate camptothecin and cisplatin resistant cells (named as HCT116 IC60 CPT^R, HCT116 IC60 CDDP^R respectively), HCT116 wild type were seeded in a 10 cm dish to a confluency of 80%. The IC20 concentrations of cisplatin (3.38 μM) and camptothecin (12.6 nM) was added for 2 hours and 6 hours, respectively. […] Resistant index was calculated using the following formula: Resistant index=IC60 of the resistant cells/IC60 of the parental cells. […]

[2] = system: HCT116 WT cells; test: MTT assay, chemotherapeutic drug gradient with or without disruptor; type: cell-based; conditions: for EC50: MTT, 72 hours
Procedure: as §1, §2
To generate camptothecin and cisplatin resistant cells (named as HCT116 IC60 CPT^R, HCT116 IC60 CDDP^R respectively), HCT116 wild type were seeded in a 10 cm dish to a confluency of 80%. The IC20 concentrations of cisplatin (3.38 μM) and camptothecin (12.6 nM) was added for 2 hours and 6 hours, respectively. Post treatment, the cells were washed twice with 1×PBS and fresh media was added. After every 48 hours, the media was changed and IC20 concentration of the drugs were added only if the confluency of cells was at least 80%. […] Resistant index was calculated using the following formula: Resistant index=IC60 of the resistant cells/IC60 of the parental cells.
Cells were seeded in a 96-well plate overnight. Next day, the culturing media was replaced with Optimem media, followed by incubation with BLM_CPP or SCM_CPP for 1 hr. The final concentrations of the peptides were 450 nM for cisplatin (CDDP) and 180 nM (for all other drugs). […] Post treatment, the cells were washed with 1×PBS and fresh media was added. After 72 hours, MTT assay was carried out to determine the percentage cell viability of the cells with respect to the untreated cells.

[3] = system: HCT116 IC60 CDDPR cells; test: MTT assay, CDDP gradient with or without disruptor; type: cell-based; conditions: CDDP gradient alone, 72 hours, read-out: EC50 (μM), HCT116 WT CDDP^R
Procedure: as §1, §2, §3

[4] = HCT116, used to generate resistant cells

Row | SMILES | EC50 [1] | EC50 ([2]; 1-OHP gradient alone, read-out: EC50 (μM), HCT116 WT + 1-OHP) | EC50 [3] | EC50 ([2]; CDDP gradient alone, read-out: EC50 (μM), HCT116 WT) | IC40 concentration [2, 4] | IC60 concentration [2, 4] | IC20 ([2]; HCT116 wild type, used to generate resistant cells, read-out: IC20 concentration)
1 | N[C@@H]1CCCC[C@H]1N.O=C([O-])C(=O)[O-].[Pt+2] [1-OHP, oxaliplatin] | 14.1 µM | 4.77 µM | – | – | – | – | –
2 | [NH2][Pt]([NH2])([Cl])[Cl] [CDDP, cisplatin] | – | – | 21.7 µM | 3.78 µM | 15.5 µM | 35.09 µM | 3.38 µM
